In PubChem BioAssay (NCI):
Where “and” joins values, the source holds several entries; their conditions need not be identical. Equal values may be shown once.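 Test compounds were applied to cells in 96-well plates for 48 hours at 5 doses. At the GI50, growth is halved. TGI is the concentration that stops growth completely.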

Assays:
Experiment in all cases: NCI anticancer screen, dose series, 48 h
SK-MEL-2 melanoma = system: SK-MEL-2 melanoma
EKVX NSCLC = system: EKVX NSCLC
NCI-H226 lung = system: NCI-H226 lung
786-0 renal = system: 786-0 renal
SF-295 CNS = system: SF-295 CNS
SNB-75 CNS = system: SNB-75 CNS
K-562 leukemia = system: K-562 leukemia
DU-145 prostate = system: DU-145 prostate
UACC-257 melanoma = system: UACC-257 melanoma
LOX IMVI melanoma = system: LOX IMVI melanoma

Row | Structure (SMILES) | TGI (SK-MEL-2 melanoma) | TGI (EKVX NSCLC) | TGI (NCI-H226 lung) | TGI (786-0 renal) | TGI (SF-295 CNS) | TGI (SNB-75 CNS) | TGI (K-562 leukemia) | TGI (DU-145 prostate) | TGI (UACC-257 melanoma) | GI50 (SK-MEL-2 melanoma) | GI50 (EKVX NSCLC) | GI50 (LOX IMVI melanoma) | TGI (LOX IMVI melanoma) | GI50 (NCI-H226 lung) | GI50 (786-0 renal) | GI50 (SF-295 CNS) | GI50 (SNB-75 CNS) | GI50 (DU-145 prostate) | GI50 (UACC-257 melanoma) | GI50 (K-562 leukemia)
1 | Cc1nc([N+](=O)[O-])cn1-c1nc2ccccn2c1[N+](=O)[O-] | > 100 µM | > 100 µM | > 100 µM | > 100 µM | > 100 µM | 63.7 µM | > 100 µM | 83.6 µM | > 100 µM | – | – | – | – | – | – | – | – | – | – | –
2 | O=c1c2ccccc2sc2c(NCCCNCCO)nc3ccccc3c12 | 3.62 µM | 4.58 µM | 2.95 µM | 2.92 µM | 4.11 µM | 4.32 µM | – | 3.33 µM | 3.6 µM | 1.87 µM | 1.67 µM | 1.28 µM | 2.82 µM | 1.41 µM | 1.49 µM | 1.83 µM | 1.64 µM | 1.6 µM | 1.93 µM | –
3 | O=C1NC(=C(Cl)Cl)/C(=N/S(=O)(=O)N2CCCCC2)N1 | 7.72 µM | – | 14.9 µM | 7.74 µM | 17.3 µM | 3.77 µM | – | 12.2 µM | 7.07 µM | 2.92 µM | – | 1.86 µM | 3.58 µM | 3.37 µM | 2.79 µM | 5.14 µM | 1.76 µM | 3.54 µM | 2.43 µM | –
4 | C=C(C)[C@H]1CC[C@@]2(C)C(C1)[C@H](C)CC[C@@H]2O (some centres not stated) | > 100 µM | > 100 µM | > 100 µM | > 100 µM | > 100 µM | > 100 µM | > 100 µM | – | > 100 µM | – | – | – | > 100 µM | – | – | – | – | – | – | –
5 | CC(=O)Nc1ccc(/C=C/C(=O)c2sc(-c3cccnc3)nc2C)cc1 | > 100 µM | > 100 µM | > 100 µM | > 100 µM | > 100 µM | > 100 µM | > 100 µM | – | > 100 µM | – | – | – | > 100 µM | – | – | – | – | – | – | –
6 | O=C1[C@H]2ON(c3ccccc3)C(c3ccc([N+](=O)[O-])cc3)[C@H]2C(=O)N1c1ccc(Cc2ccc(N3C(=O)[C@@H]4ON(c5ccccc5)C(c5ccc([N+](=O)[O-])cc5)[C@@H]4C3=O)cc2)cc1 (some centres not stated) | > 100 µM | > 100 µM | > 100 µM | > 100 µM | > 100 µM | > 100 µM | > 100 µM | – | > 100 µM | – | – | – | > 100 µM | – | – | – | – | – | – | –
7 | CCOC(=O)c1cc(C(=O)c2ccc(OC)cc2)n2ccc(/C=C/c3cc[n+](CC(=O)c4ccc(OC)cc4)cc3)cc12 | – | > 100 µM | – | 3.94 µM | > 100 µM | – | 3.31 µM | 5.16 µM | – | – | 2.8 µM | 1.51 µM | 3.66 µM | – | 1.98 µM | > 100 µM | – | 2.05 µM | – | 0.567 µM
8 | COc1ccc(C(=O)C(CN(C)C)CN(C)C)cc1 | 36.8 µM | 51.1 µM | 37.6 µM | 16.1 µM | 52.2 µM | 26.5 µM | – | 9.93 µM | 8.48 µM | 16.7 µM | 13.7 µM | 2.08 µM | 5.04 µM | 16.9 µM | 3.87 µM | 21.2 µM | 11.4 µM | 3.21 µM | 2.14 µM | –
9 | CC(C)N(C(=O)C12C3C4C5(C#N)C3C1(C#N)C5C42C#N)C(C)C (configuration not stated) | > 100 µM | > 100 µM | > 100 µM | > 100 µM | > 100 µM | > 100 µM | > 100 µM | – | > 100 µM | – | – | – | > 100 µM | – | – | – | – | – | – | –
10 | O=C(O)CSc1n[nH]c(=O)[nH]c1=O | > 100 µM | > 100 µM | > 100 µM | > 100 µM | > 100 µM | > 100 µM | > 100 µM | > 100 µM | – | – | – | – | > 100 µM | – | – | – | – | – | – | –
11 | OCC1C(OCc2ccccc2)C(OCc2ccccc2)C(OCc2ccccc2)CN1Cc1ccccc1 (configuration not stated) | – | > 100 µM | > 100 µM | > 100 µM | > 100 µM | 31.2 µM | > 100 µM | > 100 µM | 81 µM | – | – | – | > 100 µM | – | – | – | – | – | – | –
12 | C/C(=N\N=C(N)N)C(CN1CCCCC1)C(c1ccccc1)c1c(O)c2ccccc2oc1=O (configuration not stated) | > 100 µM | > 100 µM | > 100 µM | > 100 µM | > 100 µM | > 100 µM | > 100 µM | – | > 100 µM | – | – | – | > 100 µM | – | – | – | – | – | – | –
13 | Cc1c(C)n(CCCN2CCN(C)CC2)c2ccc(Oc3cccc(C(=O)N4CCN(CCc5ccc(F)cc5)CC4)c3)cc12 | – | 3.12 µM | – | 2.95 µM | 3.33 µM | 2.85 µM | – | 3.6 µM | 3.72 µM | – | 1.65 µM | 1.75 µM | 3.19 µM | – | 1.53 µM | 1.85 µM | 1.39 µM | 1.86 µM | 1.88 µM | –
14 | Cc1ccc(O)c(NC(=O)c2cccc(Nc3ccnc(C(F)(F)F)c3)c2)c1 | 18.9 µM | 59.4 µM | 23.4 µM | 51.5 µM | 27.6 µM | 25.3 µM | – | 71.5 µM | – | 5.28 µM | 3.37 µM | 9.46 µM | 27.4 µM | 0.894 µM | 8.22 µM | 6.73 µM | 11.4 µM | 16.4 µM | – | –
15 | O=C(CN(/C=C/C(=O)C(F)(F)F)c1ccc(Cl)cc1)c1ccc(Cl)cc1 | 14.4 µM | 28.7 µM | 29.4 µM | 65.1 µM | 17.7 µM | – | 32.5 µM | 29.5 µM | 20.8 µM | 3.88 µM | 14.3 µM | 4.61 µM | 20.9 µM | 14.8 µM | 18.6 µM | 4.66 µM | – | 15.1 µM | 7.45 µM | 5.93 µM
16 | NC(=O)NNC(=O)CCn1[nH]c(=O)c(Cl)c(Cl)c1=O | > 100 µM | > 100 µM | > 100 µM | > 100 µM | > 100 µM | > 100 µM | > 100 µM | – | > 100 µM | – | – | – | > 100 µM | – | – | – | – | – | – | –
17 | CC(C)(C)C1=CC(=C(P(=O)(O)O)P(=O)(O)O)C=C(C(C)(C)C)C1=O | > 50 µM | > 50 µM | > 50 µM | > 50 µM | > 50 µM | > 50 µM | > 50 µM | – | > 50 µM | – | – | – | > 50 µM | – | – | – | – | – | – | –
18 | O=C(C(=O)c1cc2ccccc2[nH]1)c1cc2ccccc2[nH]1 | > 347 µM | > 347 µM | > 347 µM | > 347 µM | > 347 µM | > 347 µM | > 347 µM | – | > 347 µM | – | – | – | > 347 µM | – | – | – | – | – | – | –
19 | C=C(c1ccc(OC)c(/C=C/C(=O)c2ccc3c(c2)OCO3)c1)c1cc(OC)c(OC)c(OC)c1 | > 100 µM | > 100 µM | – | 5.61 µM | > 100 µM | 7.08 µM | 13.9 µM | > 100 µM | > 100 µM | 4.25 µM | 4.67 µM | 1.58 µM | 3.52 µM | – | 2.16 µM | 4.14 µM | 1.64 µM | 5.54 µM | 6.69 µM | 0.783 µM
20 | COc1cc(/C=C/c2cc(/C=C/c3ccc(O)c(OC)c3)n(C(=O)c3ccc(Cl)cc3)n2)ccc1O | 5.85 µM | – | 23.2 µM | 16.2 µM | 12.4 µM | 10.3 µM | 16.4 µM | 13.9 µM | 13.2 µM | 1.92 µM | – | – | – | 3.51 µM | 2.55 µM | 3.13 µM | 1.99 µM | 3.03 µM | 3.79 µM | 0.807 µM
21 | COc1ccc(Cc2c3cc(O)c(=O)cc-3ccn2C)cc1 | > 100 µM | > 100 µM | 83.3 µM | > 66.8 µM | > 100 µM | > 100 µM | > 100 µM | – | > 89.8 µM | – | – | – | 34.5 µM | – | – | – | – | – | – | –
22 | C=CCC1(CN(C)C)CC/C(=C\c2ccc(OC)cc2)C1=O (configuration not stated) | > 100 µM | > 100 µM | > 100 µM | > 100 µM | > 100 µM | > 100 µM | > 100 µM | – | > 100 µM | – | – | – | > 100 µM | – | – | – | – | – | – | –
23 | C=C(CCCCC)CN1CCCC1C(C)=O (configuration not stated) | > 74.7 µM | > 100 µM | 68.9 µM | > 100 µM | > 94.7 µM | 78.7 µM | 51.5 µM | – | > 73.3 µM | – | – | – | 65.3 µM | – | – | – | – | – | – | –
24 | C=CCNC(=O)NCCCCC(NC(C)=O)C(=O)NCc1ccccc1 (configuration not stated) | > 100 µM | > 100 µM | > 100 µM | > 100 µM | > 100 µM | > 100 µM | > 100 µM | – | > 100 µM | – | – | – | > 100 µM | – | – | – | – | – | – | –
25 | CCC[C@H]1O[C@@H]2CC(=O)O[C@@H]2C2=C1C(=O)C=CC2=O | 38.6 µM | > 62.4 µM | 18.4 µM | 30.3 µM | 55.8 µM | 36 µM | > 46.5 µM | – | 34.8 µM | – | – | – | 39.8 µM | – | – | – | – | – | – | –
26 | OC(CNc1ccnc2cc(Cl)ccc12)CNc1ccnc2cc(Cl)ccc12 | – | 6.04 µM | 9.3 µM | 3.39 µM | 3.56 µM | 3.03 µM | – | 3.76 µM | 3.49 µM | – | 2.22 µM | – | – | 2.98 µM | 1.81 µM | 1.82 µM | 1.5 µM | 1.96 µM | 1.87 µM | –
27 | CC[C@H](C)[C@H](NC(=O)[C@H]1CCCCN1C)C(=O)N(C)[C@H](C[C@@H](OC(C)=O)c1cccc(C(=O)N[C@@H](Cc2ccccc2)C[C@H](C)C(=O)OC)n1)C(C)C | 10.3 µM | > 25 µM | > 25 µM | 18.3 µM | 0.00776 µM | > 25 µM | > 25 µM | > 25 µM | – | 0.0025 µM | 0.00838 µM and 0.00863 µM | 0.0067 µM and 0.0025 µM | > 25 µM | 0.456 µM and 0.0514 µM | 0.00526 µM and 0.00425 µM | 0.00433 µM and 0.0025 µM | 0.00366 µM and 0.00479 µM | 0.00282 µM and 0.0025 µM | – | 0.00243 µM and 0.0025 µM
